{"source": "paper PMC7062870", "about": "(Experimental & Molecular Medicine, 2020)", "biological_target": "T1, fascin1 (Homo sapiens, UniProt Q16658)", "T1 construct": "gene FSCN1; commercial purified fascin1 (Hypermol)", "assay": "F-actin bundling, low-speed cosedimentation", "type": "biochemical", "conditions": "1 µM fascin1; 10 µM F-actin", "data": [{"molecule": "CN(C)CCCN1c2ccccc2CCc2ccccc21", "note": "[imipramine]", "values": [{"measurement": "F-actin bundling, low-speed cosedimentation", "result": "upon imipramine addition, the F-actin pellet fraction significantly diminished in favor of the supernatant"}]}]}
